In patent publication US8716317B2, “Sulfonamides with heterocycle and oxadiazolone headgroup, processes for their preparation and their use as pharmaceuticals” (Sanofi, priority 2008, dated 2014):
Read-outs that look alike come from different tables or passages of the source.

Legend:
[1] = rhesus and cynomolgus monkeys; cited from earlier work
[2] = two weeks clinical trials in healthy volunteers; cited from earlier work
human PPARalpha = target: T1, human PPARalpha (Homo sapiens, UniProt Q07869); experiment: Cellular PPARalpha assay (luciferase reporter, stably transfected HEK cell line); type: cell-based; settings: GR-GAL4-humanPPARalpha-LBD
T1 construct: amino acids S167-Y468; expressed in transfected cells; host or cells: HEK (human embryo kidney) cells, stably transfected with a pcDNA3 construct
T1 sequence (Q07869 167-468): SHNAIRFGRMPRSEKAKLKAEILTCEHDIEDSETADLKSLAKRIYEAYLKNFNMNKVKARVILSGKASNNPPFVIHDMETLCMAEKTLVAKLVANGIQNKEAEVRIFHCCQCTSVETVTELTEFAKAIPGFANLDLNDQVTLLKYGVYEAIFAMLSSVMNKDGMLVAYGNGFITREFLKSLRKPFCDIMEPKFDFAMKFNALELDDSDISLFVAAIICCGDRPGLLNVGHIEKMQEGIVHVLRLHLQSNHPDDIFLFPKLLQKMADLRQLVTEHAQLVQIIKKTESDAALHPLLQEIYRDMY
Description: (§1) The potency of substances which bind to human PPARalpha and activate it in an agonistic manner is analyzed using a stably transfected HEK cell line (HEK=human embryo kidney) which is referred to here as PPARalpha reporter cell line. It contains two genetic elements, a luciferase reporter element (pdeltaM-GAL4-Luc-Zeo) and a PPARalpha fusion protein (GR-GAL4-humanPPARalpha-LBD) which mediates expression of the luciferase reporter element depending on a PPARalpha ligand. The stably and constitutively expressed fusion protein GR-GAL4-humanPPARalpha-LBD binds in the cell nucleus of the PPARalpha reporter cell line via the GAL4 protein portion to the GAL4 DNA binding motifs 5″-upstream of the luciferase reporter element which is stably integrated in the genome of the cell line. There is only weak expression of the luciferase reporter gene in the absence of a PPARalpha ligand if fatty acid-depleted fetal calf serum (cs-FCS) is used in the assay. PPARalpha ligands bind and activate the PPARalpha fusion protein and thereby stimulate the expression of the luciferase reporter gene. The luciferase which is formed can be detected by means of chemiluminescence via an appropriate substrate.
The PPARalpha reporter cell line was prepared in two stages. […]
The activity of PPARalpha agonists is determined in a 3-day assay which is described below: […]

human PPARdelta = target: T2, human PPARdelta (Homo sapiens, UniProt Q03181); experiment: Cellular PPARdelta assay (luciferase reporter, stably transfected HEK cell line); type: cell-based; settings: GR-GAL4-humanPPARdelta-LBD
T2 construct: amino acids S139-Y441; expressed in transfected cells; host or cells: HEK (human embryo kidney) cells, stably transfected with a pcDNA3 construct
T2 sequence (Q03181 139-441): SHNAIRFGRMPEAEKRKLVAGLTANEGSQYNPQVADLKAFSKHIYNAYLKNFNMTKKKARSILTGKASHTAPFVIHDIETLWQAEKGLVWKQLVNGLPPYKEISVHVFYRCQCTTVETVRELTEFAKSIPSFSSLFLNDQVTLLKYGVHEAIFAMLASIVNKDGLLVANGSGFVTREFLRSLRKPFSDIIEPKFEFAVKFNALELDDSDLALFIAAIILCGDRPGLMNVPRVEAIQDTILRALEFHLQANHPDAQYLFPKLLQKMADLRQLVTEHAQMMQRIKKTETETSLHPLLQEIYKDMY
Description: as §1, with “PPARdelta” for “PPARalpha”, “In analogy to the assay described for PPARalpha, the PPARdelta reporter cell line also” for “It”, “(GR-GAL4-humanPPARdelta-LBD)” for “(GR-GAL4-humanPPARalpha-LBD)”, “GR-GAL4-humanPPARdelta-LBD” for “GR-GAL4-humanPPARalpha-LBD”, “little” for “weak”, “stimulate” for “stimulate the”
The production of the stable PPARdelta reporter cell line is based on a stable HEK-cell clone which was stably transfected with a luciferase reporter element. This step was already described above in the section “construction of the PPARalpha reporter cell line”. […]
The activity of PPARdelta agonists is determined in a 3-day assay in exact analogy to the procedure already described for the PPARalpha reporter cell line except that the PPARdelta reporter cell line and a specific PPARdelta agonist was used as a standard to control test efficacy.

[3] = diabetic animal model; cited from earlier work
[4] = obese, insulin resistant rhesus monkeys, cited from earlier work

For `CCCc1c(OCCCSc2nnc(SCC(=O)O)s2)ccc(C(C)=O)c1O` [YM-16638], the plasma lipids [1] is given as “significantly lowers plasma lipids” and the plasma lipids [2] is given as “acts in a similar manner”.

In the case of `O=c1[nH]c(-c2ccc(S(=O)(=O)N3CCc4cc(-c5ccc(C(F)(F)F)cc5)ccc43)s2)no1` [Example 1, 3-{5-[5-(4-Trifluoromethyl-phenyl)-2,3-dihydro-indole-1-sulfonyl]thiophen-2-yl}-4H-[1,2,4]oxadiazol-5-one], the EC50 (human PPARalpha) is reported as 0.92 µM and the EC50 (human PPARdelta) is reported as 0.021 µM.

For `O=c1[nH]c(-c2ccc(S(=O)(=O)N3CCc4cc(-c5ccc(C(F)(F)F)cc5)ccc43)nc2)no1` [Example 2, 3-{6-[5-(4-Trifluoromethyl-phenyl)-2,3-dihydro-indole-1-sulfonyl]-pyridin-3-yl}-4H-[1,2,4]oxadiazol-5-one], the EC50 (human PPARalpha) was 6.7 µM and the EC50 (human PPARdelta) was 0.336 µM.

For `CCCc1c(OCCCOc2ccc(OCC(=O)O)cc2)ccc(C(C)=O)c1O` [Example L-165041], the plasma cholesterol [3] is given as “raises plasma cholesterol”.

`O=c1[nH]c(-c2ccc(S(=O)(=O)N3CCc4cc(-c5ccc(C(F)(F)F)cc5)ccc43)cn2)no1` [Example 3, 3-{5-[5-(4-Trifluoromethyl-phenyl)-2,3-dihydro-indole-1-sulfonyl]-pyridin-2-yl}-4H-[1,2,4]oxadiazol-5-one] showed an EC50 (human PPARdelta) of 0.013 µM.

In the case of `Cc1cc(SCc2sc(-c3ccc(C(F)(F)F)cc3)nc2C)ccc1OCC(=O)O` [GW501516], the insulin levels ([4]; plasma) is listed as “decreases”, the triglycerides ([4]; plasma) is listed as “decreases” and the HDL-cholesterol [4] is listed as “raises”. For the same compound, the “plasma LDL-cholesterol” value [4] was “decreases”.
